Data from ChEMBL document CHEMBL3862023, “Synthesis of N-aryl and N-arylcarbamoylamino derivatives of 1,3-diazinane-5-carboxamide and their activity against glioblastoma LN-229 cell line” (Bioorg Med Chem, 2016).

Assays:
[1] = Solubility of the compound in ethanol; format: physicochemical
[2] = Solubility of the compound in isopropanol; format: physicochemical
[3] = Cytotoxicity against human LN229 cells assessed as concentration required for induction of cell death after 24 hrs by crystal violet staining based light microscopic analysis; format: functional, LN-229
[4] = Solubility of the compound in CHCl3/TFA; format: physicochemical
[5] = Solubility of the compound in DMSO; format: physicochemical
[6] = Solubility of the compound in DMSO/TFA; format: physicochemical
[7] = Solubility of the compound in chloroform; format: physicochemical
[8] = Solubility of the compound in trifluoroacetic acid; format: physicochemical

SMILES	solubility [1]	solubility [2]	Activity [3]	other results
COc1cc(NC(=O)C2C(=O)NC(=O)NC2=O)cc(OC)c1OC	Insoluble	Insoluble	100 µg/mL	–
CN1C(=O)NC(=O)C(C(=O)Nc2ccc3cc4ccccc4cc3c2)C1=O (configuration not stated)	–	–	100 µg/mL	–
CN1C(=O)C(C(=O)Nc2ccc(Cl)c(Cl)c2)C(=O)N(C)C1=O	–	–	100 µg/mL	–
O=C1NC(=O)C(C(=O)Nc2cc(Cl)cc(Cl)c2)C(=O)N1	Insoluble	Insoluble	–	–
O=C1NC(=O)C(C(=O)NNC(=O)Nc2ccc([N+](=O)[O-])cc2)C(=O)N1	Insoluble	Insoluble	–	solubility [4]: Soluble; solubility [5]: Insoluble; solubility [6]: Soluble; solubility [7]: Insoluble; solubility [8]: Soluble
COc1ccc(NC(=O)C2C(=O)NC(=O)NC2=O)cc1	Insoluble	Insoluble	–	–
CN1C(=O)C(C(=O)Nc2ccc3ccccc3c2)C(=O)N(C)C1=O	–	–	100 µg/mL	–
CN1C(=O)C(C(=O)Nc2ccc(Cl)cc2Cl)C(=O)N(C)C1=O	–	–	100 µg/mL	–
O=C1NC(=O)C(C(=O)Nc2cc(Cl)ccc2Cl)C(=O)N1	Insoluble	Insoluble	–	–
O=C1NC(=O)N(c2ccccc2)C(=O)C1C(=O)Nc1ccc(Br)cc1 (configuration not stated)	–	–	100 µg/mL	–
O=C1NC(=O)C(C(=O)Nc2ccc(O)cc2)C(=O)N1	Insoluble	Insoluble	100 µg/mL	–
CN1C(=O)C(C(=O)Nc2ccc(Br)cc2)C(=O)N(C)C1=O	–	–	100 µg/mL	–
CN1C(=O)C(C(=O)Nc2ccc(C(=O)O)cc2)C(=O)N(C)C1=O	–	–	100 µg/mL	–
CN1C(=O)C(C(=O)Nc2ccc(-c3ccccc3)cc2)C(=O)N(C)C1=O	–	–	100 µg/mL	–
O=C1NC(=O)C(C(=O)Nc2ccc([N+](=O)[O-])cc2)C(=O)N1	Insoluble	Insoluble	100 µg/mL	–
CN1C(=O)C(C(=O)Nc2cccc(I)c2)C(=O)N(C)C1=O	–	–	100 µg/mL	–
O=C1NC(=O)C(C(=O)Nc2cccc(Cl)c2Cl)C(=O)N1	Insoluble	Insoluble	–	–
CN1C(=O)C(C(=O)Nc2ccccc2O)C(=O)N(C)C1=O	–	–	100 µg/mL	–
NC(=O)c1ccc(NC(=O)C2C(=O)NC(=O)NC2=O)cc1	Insoluble	Insoluble	–	–
CCOC(=O)c1ccc(NC(=O)C2C(=O)N(C)C(=O)N(C)C2=O)cc1	–	–	100 µg/mL	–
O=C1NC(=O)C(C(=O)Nc2ccccc2)C(=O)N1	Insoluble	Insoluble	–	–
O=C1NC(=O)C(C(=O)Nc2ccc3ccccc3c2)C(=O)N1	–	–	100 µg/mL	–
CN1C(=O)C(C(=O)Nc2ccc([N+](=O)[O-])cc2)C(=O)N(C)C1=O	–	–	100 µg/mL	–

SMILES	solubility [1]	solubility [2]	Activity [3]	other results
CN1C(=O)C(C(=O)Nc2ccc(O)cc2)C(=O)N(C)C1=O	–	–	100 µg/mL	–
O=C1NC(=O)C(C(=O)Nc2cccc([N+](=O)[O-])c2)C(=O)N1	Insoluble	Insoluble	–	–
CN1C(=O)NC(=O)C(C(=O)NNC(=O)Nc2cccc(O)c2)C1=O (configuration not stated)	Insoluble	Insoluble	–	solubility [4]: Insoluble; solubility [5]: Insoluble; solubility [6]: Insoluble; solubility [7]: Insoluble; solubility [8]: Insoluble
O=C1NC(=O)C(C(=O)Nc2ccc(F)cc2)C(=O)N1	Insoluble	Insoluble	–	–
COc1ccc(NC(=O)C2C(=O)NC(=O)N(c3ccccc3)C2=O)cc1 (configuration not stated)	–	–	100 µg/mL	–
CN1C(=O)C(C(=O)Nc2ccccc2-c2ccccc2)C(=O)N(C)C1=O	–	–	100 µg/mL	–
O=C1NC(=O)N(c2ccccc2)C(=O)C1C(=O)Nc1ccc(I)cc1 (configuration not stated)	–	–	100 µg/mL	–
CN1C(=O)NC(=O)C(C(=O)Nc2cccc(O)c2)C1=O (configuration not stated)	–	–	100 µg/mL	–
O=C1NC(=O)N(c2ccccc2)C(=O)C1C(=O)Nc1ccc(Cl)cc1Cl (configuration not stated)	–	–	100 µg/mL	–
N#Cc1ccc(NC(=O)NNC(=O)C2C(=O)NC(=O)NC2=O)cc1	Insoluble	Insoluble	–	solubility [4]: Soluble; solubility [5]: Insoluble; solubility [6]: Soluble; solubility [7]: Insoluble; solubility [8]: Soluble
COc1ccc(NC(=O)C2C(=O)NC(=O)N(C)C2=O)cc1 (configuration not stated)	–	–	100 µg/mL	–
COc1cc(NC(=O)C2C(=O)NC(=O)N(c3ccccc3)C2=O)cc(OC)c1OC (configuration not stated)	–	–	100 µg/mL	–
O=C1NC(=O)N(c2ccccc2)C(=O)C1C(=O)Nc1cccc2ccccc12 (configuration not stated)	–	–	100 µg/mL	–
O=C1NC(=O)N(c2ccccc2)C(=O)C1C(=O)Nc1nc2ccc([N+](=O)[O-])cc2s1 (configuration not stated)	–	–	100 µg/mL	–
CCOC(=O)c1ccc(NC(=O)C2C(=O)NC(=O)NC2=O)cc1	Insoluble	Insoluble	100 µg/mL	–
O=C(O)c1ccc(NC(=O)C2C(=O)NC(=O)N(c3ccccc3)C2=O)cc1 (configuration not stated)	–	–	100 µg/mL	–
O=C1NC(=O)C(C(=O)NNC(=O)Nc2cccc(O)c2)C(=O)N1	Insoluble	Insoluble	–	solubility [4]: Soluble; solubility [5]: Insoluble; solubility [6]: Soluble; solubility [7]: Insoluble; solubility [8]: Soluble
COc1ccc2nc(NC(=O)C3C(=O)NC(=O)N(c4ccccc4)C3=O)sc2c1 (configuration not stated)	–	–	100 µg/mL	–
O=C1NC(=O)C(C(=O)Nc2ccc(Br)cc2)C(=O)N1	Insoluble	Insoluble	–	–
CN1C(=O)NC(=O)C(C(=O)NNC(=O)Nc2ccccc2)C1=O (configuration not stated)	Insoluble	Insoluble	–	solubility [4]: Insoluble; solubility [5]: Insoluble; solubility [6]: Insoluble; solubility [7]: Insoluble; solubility [8]: Insoluble
O=C1NC(=O)C(C(=O)Nc2ccc(Cl)cc2)C(=O)N1	Insoluble	Insoluble	–	–
O=C1NC(=O)N(c2ccccc2)C(=O)C1C(=O)Nc1ccc2cc3ccccc3cc2c1 (configuration not stated)	–	–	100 µg/mL	–
O=C1NC(=O)C(C(=O)Nc2ccc(I)cc2)C(=O)N1	Insoluble	Insoluble	–	–

SMILES	solubility [1]	solubility [2]	Activity [3]	other results
CN1C(=O)C(C(=O)NNc2ccc([N+](=O)[O-])cc2)C(=O)N(C)C1=O	–	–	100 µg/mL	–
COc1ccc(NC(=O)C2C(=O)NC(=O)NC2=O)cc1OC	Insoluble	Insoluble	–	–
CN1C(=O)C(C(=O)Nc2cccc3ccccc23)C(=O)N(C)C1=O	–	–	100 µg/mL	–
O=C1NC(=O)N(c2ccccc2)C(=O)C1C(=O)Nc1ccccc1 (configuration not stated)	–	–	100 µg/mL	–
CN1C(=O)C(C(=O)Nc2cc(Cl)ccc2Cl)C(=O)N(C)C1=O	–	–	100 µg/mL	–
O=C1NC(=O)C(C(=O)NNC(=O)Nc2ccc(O)c([N+](=O)[O-])c2)C(=O)N1	Insoluble	Insoluble	–	solubility [4]: Soluble; solubility [5]: Insoluble; solubility [6]: Soluble; solubility [7]: Insoluble; solubility [8]: Soluble
O=C1NC(=O)C(C(=O)NNC(=O)Nc2ccc(Cl)c(Cl)c2)C(=O)N1	Insoluble	Insoluble	–	solubility [4]: Soluble; solubility [5]: Insoluble; solubility [6]: Soluble; solubility [7]: Insoluble; solubility [8]: Soluble
Cc1ccc(NC(=O)C2C(=O)NC(=O)NC2=O)cc1C	Insoluble	Insoluble	100 µg/mL	–
CN1C(=O)C(C(=O)Nc2ccc3cc4ccccc4cc3c2)C(=O)N(C)C1=O	–	–	100 µg/mL	–
CN1C(=O)NC(=O)C(C(=O)Nc2ccc(Cl)cc2)C1=O (configuration not stated)	–	–	100 µg/mL	–
O=C1NC(=O)C(C(=O)NNC(=O)Nc2ccc(O)cc2)C(=O)N1	Insoluble	Insoluble	–	solubility [4]: Soluble; solubility [5]: Insoluble; solubility [6]: Soluble; solubility [7]: Insoluble; solubility [8]: Soluble
CN1C(=O)C(C(=O)Nc2cccc(Cl)c2Cl)C(=O)N(C)C1=O	–	–	100 µg/mL	–
O=C1NC(=O)C(C(=O)Nc2ccc(Cl)c(Cl)c2)C(=O)N1	Insoluble	Insoluble	–	–
O=C1NC(=O)C(C(=O)Nc2ccc(C(=O)O)cc2)C(=O)N1	Insoluble	Insoluble	–	–
O=C1NC(=O)C(C(=O)NNC(=O)Nc2ccc(F)cc2)C(=O)N1	Insoluble	Insoluble	–	solubility [4]: Soluble; solubility [5]: Insoluble; solubility [6]: Soluble; solubility [7]: Insoluble; solubility [8]: Soluble
O=C1NC(=O)C(C(=O)Nc2cccc(O)c2)C(=O)N1	Insoluble	Insoluble	–	–
O=C1NC(=O)C(C(=O)Nc2cccc3ccccc23)C(=O)N1	–	–	100 µg/mL	–
CN1C(=O)C(C(=O)Nc2cccc(Br)c2)C(=O)N(C)C1=O	–	–	100 µg/mL	–
O=C1NC(=O)C(C(=O)Nc2ccc(Cl)cc2Cl)C(=O)N1	Insoluble	Insoluble	–	–
CN1C(=O)C(C(=O)Nc2cccc(O)c2)C(=O)N(C)C1=O	–	–	100 µg/mL	–
O=C1NC(=O)C(C(=O)Nc2cccc(Br)c2)C(=O)N1	Insoluble	Insoluble	100 µg/mL	–
CN1C(=O)NC(=O)C(C(=O)NNC(=O)Nc2ccc(F)cc2)C1=O (configuration not stated)	Insoluble	Insoluble	–	solubility [4]: Insoluble; solubility [5]: Insoluble; solubility [6]: Insoluble; solubility [7]: Insoluble; solubility [8]: Insoluble
O=C1NC(=O)C(C(=O)Nc2ccc3cc4ccccc4cc3c2)C(=O)N1	–	–	100 µg/mL	–
